This note sets out measurements from US20240279227A1, “FUSED HETEROCYCLIC DERIVATIVES” (Janssen Sciences Ireland Unlimited Company, priority 2021, published 2024).

Data set [1] in a line: Human liver microsome stability. The data set is classed as in vitro ADME. Conditions: human, pooled human liver microsomes, pH 7.4, pooled human liver microsomes 0.5 mg/mL, 1 μM compound, NADPH 1 mM, pH 7.4, 37° C., 0-60 min; read-out: HLM Metabolism t1/2. The method, boiled down:
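Pooled human liver microsomes (0.5 mg/mL) incubated at 37 °C with 1 μM compound in 0.1 M phosphate pH 7.4, 1 mM MgCl2; 1 mM NADPH starts reaction. Samples quenched in acetonitrile at 0–60 min, analysed by LC-MS against internal standard; half-life from slope of ln peak-area ratio versus time.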
In general terms: Liver microsomes are vesicles of endoplasmic reticulum, rich in cytochrome P450 enzymes.

Another data set deals with HBV. Kind of data set: Anti-HBV activity in HepG2.117 cell line (intracellular HBV DNA, real-time PCR). The format is cell-based, hepatitis B virus. Conditions: Hepatitis B virus, HepG2.117, 72 h, HepG2.117 cells, HBV replication induced, 3 days of treatment, intracellular HBV DNA by real-time PCR. The method, boiled down: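 HepG2.117 cells (Tet-off, doxycycline-free HBV replication) induced for HBV replication, then exposed to serially diluted compound for 3 days. Intracellular HBV DNA quantified by real-time PCR with HBV-specific primers and probe.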
For orientation: Quantitative PCR measures a nucleic acid by following its amplification.

Data set [2] can be described thus: Cytotoxicity, ATPlite Luminescence Assay. The format is cell-based, human. Conditions: human, HepG2 or HepG2.117 cells, 3-days incubation unless marked with *, ATPlite viability. The method, boiled down: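 Viability after compound treatment is read as ATP luminescence. Exposure lasts 3 or 4 days.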

Molecules are shown by their SMILES.

Usually EC50 stands for the concentration needed to bring the measured effect to its halfway point. A low value points to greater potency. The CC50 is the concentration giving 50% cytotoxicity. `CNC(=O)[C@@H]1CN([C@H](C)c2ccc(OC(F)F)cc2)C(=O)c2c3c(nn21)C[C@@H](C)N(C(=O)c1ccc(Cl)c(Cl)c1)C3` [Compound 16A, (3R,7S)-2-(3,4-dichlorobenzoyl)-9-((R)-1-(4-(difluoromethoxy)phenyl)ethyl)-N,3-dimethyl-10-oxo-1,2,3,4,7,8,9,10-octahydropyrido[4′,3′:3,4]pyrazolo[1,5-a]pyrazine-7-carboxamide]: the half-life at 1 μM in data set [1] was over 3 h. The same compound came in with an EC50 in the data set on HBV of 0.021 µM. In data set [2], this compound showed a half-maximal cytotoxic concentration (CC50) of 40.4 µM.
In the same order, the values of `CNC(=O)[C@@H]1CN([C@@H](C)c2ccc(OC(F)F)cc2)C(=O)c2c3c(nn21)C[C@@H](C)N(C(=O)c1ccc(Cl)c(Cl)c1)C3` [Compound 16B, (3R,7S)-2-(3,4-dichlorobenzoyl)-9-((S)-1-(4-(difluoromethoxy)phenyl)ethyl)-N,3-dimethyl-10-oxo-1,2,3,4,7,8,9,10-octahydropyrido[4′,3′:3,4]pyrazolo[1,5-a]pyrazine-7-carboxamide] are over 3 h, 0.02 µM and 16.9 µM.
In the same order, the values of `CNC(=O)[C@@H]1CN(Cc2ccc(OC(F)F)cc2)C(=O)c2c3c(nn21)C[C@@H](C)N(C(=O)c1ccc(Cl)c(Cl)c1)C3` [Compound 17, (3R,7S)-2-(3,4-Dichlorobenzoyl)-9-(4-(difluoromethoxy)benzyl)-N,3-dimethyl-10-oxo-1,2,3,4,7,8,9,10-octahydropyrido[4′,3′:3,4]pyrazolo[1,5-a]pyrazine-7-carboxamide] are over 3 h, 0.036 µM and 39.1 µM.
The like results for `CNC(=O)[C@@H]1CN([C@H](C)c2ccc(S(C)(=O)=O)cc2)C(=O)c2c3c(nn21)C[C@@H](C)N(C(=O)c1ccc(Cl)c(Cl)c1)C3` [Compound 18A, (3R,7S)-2-(3,4-Dichlorobenzoyl)-N,3-dimethyl-9-((R)-1-(4-(methylsulfonyl)phenyl)ethyl)-10-oxo-1,2,3,4,7,8,9,10-octahydropyrido[4′,3′:3,4]pyrazolo[1,5-a]pyrazine-7-carboxamide] were, in that order, over 3 h, 0.597 µM and over 50 µM.
Turning to `CNC(=O)[C@@H]1CN([C@@H](C)c2ccc(S(C)(=O)=O)cc2)C(=O)c2c3c(nn21)C[C@@H](C)N(C(=O)c1ccc(Cl)c(Cl)c1)C3` [Compound 18B, (3R,7S)-2-(3,4-Dichlorobenzoyl)-N,3-dimethyl-9-((S)-1-(4-(methylsulfonyl)phenyl)ethyl)-10-oxo-1,2,3,4,7,8,9,10-octahydropyrido[4′,3′:3,4]pyrazolo[1,5-a]pyrazine-7-carboxamide], in data set [1], the half-life at 1 μM is over 3 h. The compound also had a 50% effective concentration (EC50) in the data set with HBV of 0.037 µM. The compound also displayed a CC50 in data set [2] of over 50 µM.
On to `CNC(=O)[C@@H]1CN(Cc2ccc(S(=O)(=O)C3CC3)cc2)C(=O)c2c3c(nn21)C[C@@H](C)N(C(=O)c1ccc(Cl)c(C(F)(F)F)c1)C3` [Compound 21, (3R,7S)-2-(4-Chloro-3-(trifluoromethyl)benzoyl)-9-(4-(cyclopropylsulfonyl)benzyl)-N,3-dimethyl-10-oxo-1,2,3,4,7,8,9,10-octahydropyrido[4′,3′:3,4]pyrazolo[1,5-a]pyrazine-7-carboxamide], for which the half-life at 1 μM in data set [1] was over 3 h. Moreover, in the data set with HBV, the response was half-maximal at 0.086 µM (EC50). In data set [2], the CC50 was over 50 µM.
As to `CNC(=O)[C@@H]1CN([C@@H](C)c2ccc(OC(F)F)cc2)C(=O)c2c3c(nn21)C[C@@H](C)N(C(=O)c1ccc(Cl)c(C(F)F)c1)C3` [Compound 25, (3R,7S)-2-(4-Chloro-3-(difluoromethyl)benzoyl)-9-((S)-1-(4-(difluoromethoxy)phenyl)ethyl)-N,3-dimethyl-10-oxo-1,2,3,4,7,8,9,10-octahydropyrido[4′,3′:3,4]pyrazolo[1,5-a]pyrazine-7-carboxamide], the half-life at 1 μM in data set [1] is 1.3 h. The EC50 in the data set with HBV amounted to 0.01 µM. Further, the CC50 in data set [2] is over 50 µM.
The like results for `C[C@@H]1Cc2nn3c(c2CN1C(=O)c1ccc(Cl)c(C#N)c1)C(=O)N([C@H](C)c1ccc(OC(F)F)cc1)C[C@H]3C(=O)N(C)C` [Compound 27A, (3R,7S)-2-(4-Chloro-3-cyanobenzoyl)-9-((R)-1-(4-(difluoromethoxy)phenyl)ethyl)-N,N,3-trimethyl-10-oxo-1,2,3,4,7,8,9,10-octahydropyrido[4′,3′:3,4]pyrazolo[1,5-a]pyrazine-7-carboxamide] were, in that order, over 3 h, 0.031 µM and over 50 µM.
As to `C[C@@H]1Cc2nn3c(c2CN1C(=O)c1ccc(Cl)c(C#N)c1)C(=O)N([C@@H](C)c1ccc(OC(F)F)cc1)C[C@H]3C(=O)N(C)C` [Compound 27B, (3R,7S)-2-(4-chloro-3-cyanobenzoyl)-9-((S)-1-(4-(difluoromethoxy)phenyl)ethyl)-N,N,3-trimethyl-10-oxo-1,2,3,4,7,8,9,10-octahydropyrido[4′,3′:3,4]pyrazolo[1,5-a]pyrazine-7-carboxamide], in data set [1], the half-life at 1 μM is over 3 h. In the data set on HBV, this compound returned an EC50 of 0.046 µM. Further, the CC50 in data set [2] was over 50 µM.
In the same order, the values of `CNC(=O)[C@@H]1CN(Cc2ccc(OC(F)F)cc2)C(=O)c2c3c(nn21)C[C@@H](C)N(C(=O)c1ccc(Cl)c(C(F)(F)F)c1)C3` [Compound 28, (3R,7S)-2-(4-Chloro-3-(trifluoromethyl)benzoyl)-9-(4-(difluoromethoxy)benzyl)-N,3-dimethyl-10-oxo-1,2,3,4,7,8,9,10-octahydropyrido[4′,3′:3,4]pyrazolo[1,5-a]pyrazine-7-carboxamide] are over 3 h, 0.019 µM and 29.5 µM.
The like results for `CNC(=O)[C@@H]1CN([C@@H](C)c2ccc(OC(F)F)cc2)C(=O)c2c3c(nn21)C[C@@H](C)N(C(=O)c1ccc(Cl)c(C(F)(F)F)n1)C3` [Compound 45, (3R,7S)-2-(5-Chloro-6-(trifluoromethyl)picolinoyl)-9-((S)-1-(4-(difluoromethoxy)phenyl)ethyl)-N,3-dimethyl-10-oxo-1,2,3,4,7,8,9,10-octahydropyrido[4′,3′:3,4]pyrazolo[1,5-a]pyrazine-7-carboxamide] were, in that order, over 3 h, 0.067 µM and 49.8 µM.
Regarding `C[C@@H]1Cc2nn3c(c2CN1C(=O)c1ccc(Cl)c(Cl)c1)C(=O)N([C@H](C)c1ccc(OC(F)F)cc1)CC3` [Ref 1, reference compound], the half-life at 1 μM in data set [1] stood at 0.257 h. Moreover, the midpoint of the response in the data set on HBV, the EC50, lay at 0.069 µM. Also, the CC50 in data set [2] is over 50 µM.
In the same order, the values of `C[C@@H]1Cc2nn3c(c2CN1C(=O)c1ccc(Cl)c(Cl)c1)C(=O)N([C@@H](C)c1ccc(OC(F)F)cc1)CC3` [Ref 2, reference compound] are 0.117 h, 0.026 µM and 19.8 µM.
